As usually defined, the pIC50 is the IC50 on a negative log10 scale, so that one unit is a factor of ten.

pIC50: −log10 of the molar value. Where only a bound is given, the exact number is not on record here.

Sequence of HIS-TGFβR1 T204D (P36897 34-503 T204D): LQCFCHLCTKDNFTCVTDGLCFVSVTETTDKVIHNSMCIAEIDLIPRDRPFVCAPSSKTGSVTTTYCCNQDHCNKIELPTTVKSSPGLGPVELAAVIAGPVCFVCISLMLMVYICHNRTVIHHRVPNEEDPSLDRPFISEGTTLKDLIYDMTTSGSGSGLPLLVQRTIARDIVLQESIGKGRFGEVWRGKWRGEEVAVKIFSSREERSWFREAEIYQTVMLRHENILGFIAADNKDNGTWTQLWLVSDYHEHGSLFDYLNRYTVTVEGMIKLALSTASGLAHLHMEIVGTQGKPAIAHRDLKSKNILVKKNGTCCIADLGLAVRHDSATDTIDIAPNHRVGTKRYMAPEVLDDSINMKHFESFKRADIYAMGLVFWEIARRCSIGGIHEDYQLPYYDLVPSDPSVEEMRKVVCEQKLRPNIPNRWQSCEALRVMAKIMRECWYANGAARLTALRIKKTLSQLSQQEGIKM

This test has as its target HIS-TGFβR1 T204D (Homo sapiens (Human), UniProt P36897, T204D). Put plainly: HTRF probe-displacement assay, HIS-TGFβR1 T204D. The note with it: 1 hour at room temperature. Type of test: binding. Background: In TR-FRET formats the signal depends on donor and acceptor labels being close together.
For the molecule `CC(C)(C)OC(=O)N1CCN(CCNC(=O)c2cnccc2Nc2nc(-c3ccccn3)nn3cccc23)CC1` [Example 145, tert-butyl 4-{2-[(4-{[2-(pyridin-2-yl)pyrrolo[2,1-f][1,2,4]triazin-4-yl]amino}pyridin-3-yl)formamido]ethyl}piperazine-1-carboxylate], the pIC50 is 6.68.

`Fc1cccc(-c2nc(Nc3ccncc3)c3cccn3n2)n1` [Example 213, N-[2-(6-fluoropyridin-2-yl)pyrrolo[2,1-f][1,2,4]triazin-4-yl]pyridin-4-amine] showed a pIC50 of 7.85. The value for `O=C(NCc1ccn[nH]1)c1cnccc1Nc1nc(-c2cccc(C(F)F)n2)nn2cccc12` [Example 197, 4-({2-[6-(difluoromethyl)pyridin-2-yl]pyrrolo[2,1-f][1,2,4]triazin-4-yl}amino)-N-(1H-pyrazol-5-ylmethyl)pyridine-3-carboxamide] was 7.38; that for `CN1CCN(CCCNCc2ccn3nc(-c4ccccn4)nc(Nc4ccncc4F)c23)CC1` [Example 283, 3-fluoro-N-[5-({[3-(4-methylpiperazin-1-yl)propyl]amino}methyl)-2-(pyridin-2-yl)pyrrolo[2,1-f][1,2,4]triazin-4-yl]pyridin-4-amine] was 7.92; that for `CS(=O)(=O)Nc1cccc(-c2nc(Nc3ccncc3F)c3cccn3n2)n1` [Example 77, N-(6-{4-[(3-fluoropyridin-4-yl)amino]pyrrolo[2,1-f][1,2,4]triazin-2-yl}pyridin-2-yl)methanesulfonamide] was 7.92. The value for `CCOC(=O)CCNC(=O)c1cnccc1Nc1nc(-c2cccc(C(F)F)n2)nn2cccc12` [Example 204, Ethyl 3-{[4-({2-[6-(difluoromethyl)pyridin-2-yl]pyrrolo[2,1-f][1,2,4]triazin-4-yl}amino)pyridin-3-yl]formamido}propanoate] was 7.28; that for `Cc1cccc(-c2nc(Nc3ccncc3C(=O)N3CCOCC3)c3cccn3n2)n1` [Example 163, N-[2-(6-methylpyridin-2-yl)pyrrolo[2,1-f][1,2,4]triazin-4-yl]-3-(morpholine-4-carbonyl)pyridin-4-amine] was 7.52. The molecule `COc1cccc(-c2nc(Nc3ccnc(Cl)c3)c3cccn3n2)n1` [Example 93, 2-chloro-N-[2-(6-methoxypyridin-2-yl)pyrrolo[2,1-f][1,2,4]triazin-4-yl]pyridin-4-amine] gave a pIC50 of 5.18. Next, `Cc1cccc(-c2nc(Nc3ccncc3C(=O)NC3CCOC3)c3cccn3n2)n1` (stereo not drawn) [Example 161, 4-{[2-(6-methylpyridin-2-yl)pyrrolo[2,1-f][1,2,4]triazin-4-yl]amino}-N-(oxolan-3-yl)pyridine-3-carboxamide]: 7.55. `CCCNC(=O)c1cnccc1Nc1nc(-c2cccc(C(F)F)n2)nn2cccc12` [Example 184, 4-({2-[6-(difluoromethyl)pyridin-2-yl]pyrrolo[2,1-f][1,2,4]triazin-4-yl}amino)-N-propylpyridine-3-carboxamide] showed a pIC50 of 7.85.

In turn, `O=C(NCCN1CCCC1)c1cnccc1Nc1nc(-c2cccc(C(F)(F)F)n2)nn2cccc12` [Example 170, N-[2-(pyrrolidin-1-yl)ethyl]-4-({2-[6-(trifluoromethyl)pyridin-2-yl]pyrrolo[2,1-f][1,2,4]triazin-4-yl}amino)pyridine-3-carboxamide] gave a pIC50 of 7.77.

`CN1CCN(CCCNC(=O)c2cnccc2Nc2nc(-c3cccc(C(F)F)n3)nn3cccc23)CC1` [Example 176, 4-({2-[6-(difluoromethyl)pyridin-2-yl]pyrrolo[2,1-f][1,2,4]triazin-4-yl}amino)-N-[3-(4-methylpiperazin-1-yl)propyl]pyridine-3-carboxamide] gave a pIC50 of 8.07. Next, `CC(C)(O)CNCc1ccn2nc(-c3cccc(C(F)F)n3)nc(Nc3ccncc3F)c12` [Example 116, 1-[({2-[6-(difluoromethyl)pyridin-2-yl]-4-[(3-fluoropyridin-4-yl)amino]pyrrolo[2,1-f][1,2,4]triazin-5-yl}methyl)amino]-2-methylpropan-2-ol]: 8.64; `NC(=O)c1cnccc1Nc1nc(-c2ccc(F)c(C(F)F)n2)nn2cccc12` [Example 224, 4-({2-[6-(difluoromethyl)-5-fluoropyridin-2-yl]pyrrolo[2,1-f][1,2,4]triazin-4-yl}amino)pyridine-3-carboxamide]: 8.85. The value for `Cc1cccc(-c2nc(Nc3ccncc3F)c3ccc(C(=O)O)n3n2)n1` [Example 52, 4-[(3-fluoropyridin-4-yl)amino]-2-(6-methylpyridin-2-yl)pyrrolo[2,1-f][1,2,4]triazine-7-carboxylic acid] was 7.46; that for `CC(O)CCNCc1ccn2nc(-c3ccccn3)nc(Nc3ccncc3F)c12` (stereo not drawn) [Example 274, 4-[({4-[(3-fluoropyridin-4-yl)amino]-2-(pyridin-2-yl)pyrrolo[2,1-f][1,2,4]triazin-5-yl}methyl)amino]butan-2-ol] was 9.28; that for `COc1cccc(-c2nc(Nc3ccncc3F)c3cc(CN4CCC(F)(F)CC4)cn3n2)n1` [Example 40, N-{6-[(4,4-difluoropiperidin-1-yl)methyl]-2-(6-methoxypyridin-2-yl)pyrrolo[2,1-f][1,2,4]triazin-4-yl}-3-fluoropyridin-4-amine] was 6.64. The value for `CCNc1cc(Nc2nc(-c3ccccn3)nn3ccc(CNCC(C)(C)O)c23)ccn1` [Example 258, 1-{[(4-{[2-(ethylamino)pyridin-4-yl]amino}-2-(pyridin-2-yl)pyrrolo[2,1-f][1,2,4]triazin-5-yl)methyl]amino}-2-methylpropan-2-ol] was 8.35; that for `CCc1cc2c(Nc3ccncc3F)nc(-c3cccc(OC)n3)nn2c1` [Example 29, 6-ethyl-N-(3-fluoropyridin-4-yl)-2-(6-methoxypyridin-2-yl)pyrrolo[2,1-f][1,2,4]triazin-4-amine] was 7.80; that for `CN(C)CCNCc1ccn2nc(-c3ccccn3)nc(Nc3ccncc3F)c12` [Example 280, N-[5-({[2-(dimethylamino)ethyl]amino}methyl)-2-(pyridin-2-yl)pyrrolo[2,1-f][1,2,4]triazin-4-yl]-3-fluoropyridin-4-amine] was 8.85. `Fc1cnccc1Nc1nc(-c2ccccn2)nn2ccc(CN[C@H]3CCN(Cc4ccccc4)C3)c12` [Example 285, N-[5-({[(3S)-1-benzylpyrrolidin-3-yl]amino}methyl)-2-(pyridin-2-yl)pyrrolo[2,1-f][1,2,4]triazin-4-yl]-3-fluoropyridin-4-amine] had a negative logarithm of the IC50 (pIC50) of 8.92. `OC1CCC(NCc2ccn3nc(-c4ccccn4)nc(Nc4ccncc4F)c23)CC1` (stereo not drawn) [Example 236, 4-[({4-[(3-fluoropyridin-4-yl)amino]-2-(pyridin-2-yl)pyrrolo[2,1-f][1,2,4]triazin-5-yl}methyl)amino]cyclohexan-1-ol]: the pIC50 was 8.66.

Take `Cc1cccc(-c2nc(Nc3ccncc3C(=O)NCCN3CCCCC3)c3cccn3n2)n1` [Example 155, 4-{[2-(6-methylpyridin-2-yl)pyrrolo[2,1-f][1,2,4]triazin-4-yl]amino}-N-[2-(piperidin-1-yl)ethyl]pyridine-3-carboxamide]: the pIC50 is 8.17. Next, `O=C(NCCN1CCNCC1)c1cnccc1Nc1nc(-c2ccccn2)nn2cccc12` [Example 151, N-[2-(piperazin-1-yl)ethyl]-4-{[2-(pyridin-2-yl)pyrrolo[2,1-f][1,2,4]triazin-4-yl]amino}pyridine-3-carboxamide]: 7.31; `CCOc1cccc(-c2nc(Nc3ccncc3F)c3cccn3n2)n1` [Example 102, N-[2-(6-ethoxypyridin-2-yl)pyrrolo[2,1-f][1,2,4]triazin-4-yl]-3-fluoropyridin-4-amine]: 7.82; `O=C(NCCN1CCCCC1)c1cnccc1Nc1nc(-c2cccc(C(F)(F)F)n2)nn2cccc12` [Example 171, N-[2-(piperidin-1-yl)ethyl]-4-({2-[6-(trifluoromethyl)pyridin-2-yl]pyrrolo[2,1-f][1,2,4]triazin-4-yl}amino)pyridine-3-carboxamide]: 6.92. The value for `CC(=O)Nc1cc(Nc2nc(-c3ccc(F)c(C)n3)nn3cccc23)c(F)cn1` [Example 333, N-(5-fluoro-4-{[2-(5-fluoro-6-methylpyridin-2-yl)pyrrolo[2,1-f][1,2,4]triazin-4-yl]amino}pyridin-2-yl)acetamide] was 8.44. `CC(=O)Nc1cc(Nc2nc(-c3ccccn3)nn3ccc(CN4CCN(CCO)CC4)c23)ccn1` [Example 250, N-{4-[(5-{[4-(2-hydroxyethyl)piperazin-1-yl]methyl}-2-(pyridin-2-yl)pyrrolo[2,1-f][1,2,4]triazin-4-yl)amino]pyridin-2-yl}acetamide] showed a pIC50 of 8.92. In the case of `CS(=O)(=O)Nc1cccc(-c2nc(Nc3ccncc3Cl)c3cccn3n2)n1` [Example 90, N-(6-{4-[(3-chloropyridin-4-yl)amino]pyrrolo[2,1-f][1,2,4]triazin-2-yl}pyridin-2-yl)methanesulfonamide], the pIC50 is 8.06. `COc1cccc(-c2nc(Nc3ccncc3F)c3cc(NC(C)=O)cn3n2)n1` [Example 104, N-{4-[(3-fluoropyridin-4-yl)amino]-2-(6-methoxypyridin-2-yl)pyrrolo[2,1-f][1,2,4]triazin-6-yl}acetamide]: the pIC50 was 7.07. The value for `O=C(NCCO)c1cnccc1Nc1nc(-c2cccc(C(F)F)n2)nn2cccc12` [Example 192, 4-({2-[6-(difluoromethyl)pyridin-2-yl]pyrrolo[2,1-f][1,2,4]triazin-4-yl}amino)-N-(2-hydroxyethyl)pyridine-3-carboxamide] was 8.41. Next, `CC(C)(O)CNCc1ccn2nc(-c3ccc(F)cn3)nc(Nc3ccncc3F)c12` [Example 235, 1-({[2-(5-fluoropyridin-2-yl)-4-[(3-fluoropyridin-4-yl)amino]pyrrolo[2,1-f][1,2,4]triazin-5-yl]methyl}amino)-2-methylpropan-2-ol]: above 9.60. `Cc1csc(-c2nc(Nc3ccncc3F)c3cccn3n2)n1` [Example 12, 3-fluoro-N-[2-(4-methyl-1,3-thiazol-2-yl)pyrrolo[2,1-f][1,2,4]triazin-4-yl]pyridin-4-amine] gave a pIC50 of 9.10.
